In ChEMBL document CHEMBL5042496, “An unanticipated discovery towards novel naphthalimide corbelled aminothiazoximes as potential anti-MRSA agents and allosteric modulators for PBP2a” (Eur J Med Chem, 2022) one finds MIC and HC50 data, which are given here for eight molecules.

In one data set the test system is Acinetobacter baumannii. As to the kind of experiment: Antibacterial activity against Acinetobacter baumannii assessed as bacterial growth inhibition measured after 24 hrs by two fold serial dilution technique. The class given is functional.
Data set [1] relates to Escherichia coli. Kind of data set: Antibacterial activity against Escherichia coli ATCC 25922 assessed as bacterial growth inhibition measured after 24 hrs by two fold serial dilution technique. The class given is functional.
Data set [2] has as its system Staphylococcus aureus. As to the kind of experiment: Antibacterial activity against Staphylococcus aureus ATCC 25923 assessed as bacterial growth inhibition measured after 24 hrs by two fold serial dilution technique. The class given is functional.
In data set [3] the test system is Escherichia coli. Kind of data set: Antibacterial activity against Escherichia coli assessed as bacterial growth inhibition measured after 24 hrs by two fold serial dilution technique. It is filed as functional.
Data set [4] can be described thus: Hemolytic activity in human RBC assessed as hemolysis incubated for 1 hr. The class given is toxicity, cell-based, Erythrocyte. The conditions noted are these: red blood cells.
The test system of data set [5] is Staphylococcus aureus. As to the kind of experiment: Antibacterial activity against methicillin-resistant Staphylococcus aureus assessed as bacterial growth inhibition measured after 24 hrs by two fold serial dilution technique. It is filed as functional.
The test system of data set [6] is Pseudomonas aeruginosa. Kind of data set: Antibacterial activity against Pseudomonas aeruginosa ATCC 27853 assessed as bacterial growth inhibition measured after 24 hrs by two fold serial dilution technique. The class given is functional.
For data set [7], the system named is Staphylococcus aureus. As to the kind of experiment: Antibacterial activity against Staphylococcus aureus ATCC 29213 assessed as bacterial growth inhibition measured after 24 hrs by two fold serial dilution technique. It is filed as functional.
For data set [8], the system named is Pseudomonas aeruginosa. Kind of data set: Antibacterial activity against Pseudomonas aeruginosa assessed as bacterial growth inhibition measured after 24 hrs by two fold serial dilution technique. It is filed as functional.
Data set [9] relates to Staphylococcus aureus. As to the kind of experiment: Antibacterial activity against Staphylococcus aureus assessed as bacterial growth inhibition measured after 24 hrs by two fold serial dilution technique. The class given is functional.
The subject of another data set is Enterococcus faecium. As to the kind of experiment: Antibacterial activity against Enterococcus faecium assessed as bacterial growth inhibition measured after 24 hrs by two fold serial dilution technique. The class given is functional.
A further data set deals with Klebsiella pneumoniae. Kind of data set: Antibacterial activity against Klebsiella pneumoniae assessed as bacterial growth inhibition measured after 24 hrs by two fold serial dilution technique. It is filed as functional.

Converted amounts (≈) assume the structure as drawn.

With `CO/N=C(\C(=O)N1CCN(c2ccc3c4c(cccc24)C(=O)N(NCCO)C3=O)CC1)c1csc(N)n1`, the MIC is 16 µg/mL (≈ 30.6 µM) in the data set on Acinetobacter baumannii; 128 µg/mL (≈ 244 µM) with Escherichia coli [1]; 8 µg/mL (≈ 15.3 µM) with Staphylococcus aureus [2]; 2 µg/mL (≈ 3.82 µM) in the data set on Escherichia coli [3]; 4 µg/mL (≈ 7.64 µM) in the data set with Staphylococcus aureus [5]; 32 µg/mL (≈ 61.1 µM) with Pseudomonas aeruginosa [6]. Besides, the minimum inhibitory concentration (MIC) with Staphylococcus aureus [7] worked out at 64 µg/mL (≈ 122 µM); with Pseudomonas aeruginosa [8], 32 µg/mL (≈ 61.1 µM); in the data set with Staphylococcus aureus [9] it was 64 µg/mL (≈ 122 µM); with Enterococcus faecium, 64 µg/mL (≈ 122 µM); in the data set with Klebsiella pneumoniae, 16 µg/mL (≈ 30.6 µM). Besides, the HC50 at 1 h in data set [4] amounted to 325 µg/mL.

Consider `CCCCCCN1C(=O)c2cccc3c(N4CCN(C(=O)/C(=N\OC)c5csc(N)n5)CC4)ccc(c23)C1=O`, for which the MIC in the data set with Acinetobacter baumannii amounted to 8 µg/mL (≈ 14.6 µM); with Escherichia coli [1], 64 µg/mL (≈ 117 µM); in the data set with Staphylococcus aureus [2] it was 128 µg/mL (≈ 233 µM); with Escherichia coli [3], 32 µg/mL (≈ 58.3 µM); in the data set on Staphylococcus aureus [5], 32 µg/mL (≈ 58.3 µM); in the data set with Pseudomonas aeruginosa [6], 64 µg/mL (≈ 117 µM). Moreover, the minimal inhibitory concentration (MIC) is 64 µg/mL (≈ 117 µM) with Staphylococcus aureus [7]; 64 µg/mL (≈ 117 µM) in the data set on Pseudomonas aeruginosa [8]; 16 µg/mL (≈ 29.2 µM) in the data set on Staphylococcus aureus [9]; 64 µg/mL (≈ 117 µM) with Enterococcus faecium; 64 µg/mL (≈ 117 µM) in the data set with Klebsiella pneumoniae. Besides, the HC50 at 1 h in [4] was 306 µg/mL.

As for `CO/N=C(\C(=O)N1CCN(c2ccc3c4c(cccc24)C(=O)N(N)C3=O)CC1)c1csc(N)n1`, the minimal inhibitory concentration (MIC) in the data set with Acinetobacter baumannii was found to be 32 µg/mL (≈ 66.7 µM); with Escherichia coli [1] it was 64 µg/mL (≈ 133 µM); in the data set with Staphylococcus aureus [2], 32 µg/mL (≈ 66.7 µM); with Escherichia coli [3], 2 µg/mL (≈ 4.17 µM); in the data set on Staphylococcus aureus [5], 4 µg/mL (≈ 8.34 µM); in the data set on Pseudomonas aeruginosa [6], 32 µg/mL (≈ 66.7 µM). Moreover, the minimal inhibitory concentration (MIC) in the data set with Staphylococcus aureus [7] stood at 64 µg/mL (≈ 133 µM); in the data set on Pseudomonas aeruginosa [8], 16 µg/mL (≈ 33.4 µM); with Staphylococcus aureus [9], 64 µg/mL (≈ 133 µM); with Enterococcus faecium, 32 µg/mL (≈ 66.7 µM); in the data set on Klebsiella pneumoniae it was 32 µg/mL (≈ 66.7 µM). The HC50 at 1 h in data set [4] stood at 250 µg/mL.

As for `CO/N=C(\C(=O)N1CCN(c2ccc3c4c(cccc24)C(=O)N(C2CCCCC2)C3=O)CC1)c1csc(N)n1`, the MIC with Acinetobacter baumannii worked out at 8 µg/mL (≈ 14.6 µM); in the data set on Escherichia coli [1] it was 64 µg/mL (≈ 117 µM); in the data set on Staphylococcus aureus [2] it was 128 µg/mL (≈ 234 µM); in the data set on Escherichia coli [3], 64 µg/mL (≈ 117 µM); with Staphylococcus aureus [5], 16 µg/mL (≈ 29.3 µM); with Pseudomonas aeruginosa [6] it was 64 µg/mL (≈ 117 µM). In addition, the minimal inhibitory concentration (MIC) turned out to be 64 µg/mL (≈ 117 µM) in the data set with Staphylococcus aureus [7]; 128 µg/mL (≈ 234 µM) in the data set with Pseudomonas aeruginosa [8]; 64 µg/mL (≈ 117 µM) with Staphylococcus aureus [9]; 16 µg/mL (≈ 29.3 µM) in the data set with Enterococcus faecium; 16 µg/mL (≈ 29.3 µM) in the data set on Klebsiella pneumoniae. For the same molecule, the HC50 at 1 h in data set [4] worked out at 257 µg/mL.

Turning to `CO/N=C(\C(=O)N1CCN(c2ccc3c4c(cccc24)C(=O)N(NC(C)=O)C3=O)CC1)c1csc(N)n1`, the MIC in the data set on Acinetobacter baumannii was 16 µg/mL (≈ 30.7 µM); with Escherichia coli [1], 64 µg/mL (≈ 123 µM); in the data set on Staphylococcus aureus [2], 64 µg/mL (≈ 123 µM); in the data set with Escherichia coli [3] it was 4 µg/mL (≈ 7.67 µM); with Staphylococcus aureus [5], 4 µg/mL (≈ 7.67 µM); in the data set with Pseudomonas aeruginosa [6], 32 µg/mL (≈ 61.4 µM). Further, the MIC in the data set with Staphylococcus aureus [7] came to 32 µg/mL (≈ 61.4 µM); with Pseudomonas aeruginosa [8], 32 µg/mL (≈ 61.4 µM); in the data set with Staphylococcus aureus [9], 64 µg/mL (≈ 123 µM); in the data set on Enterococcus faecium, 32 µg/mL (≈ 61.4 µM); in the data set with Klebsiella pneumoniae, 32 µg/mL (≈ 61.4 µM). The 50% haemolytic concentration (HC50) at 1 h in data set [4] came to 180 µg/mL.

Take `CO/N=C(\C(=O)N1CCN(c2ccc3c4c(cccc24)C(=O)N(C2CC2)C3=O)CC1)c1csc(N)n1`: the minimal inhibitory concentration (MIC) was 16 µg/mL (≈ 31.7 µM) in the data set on Acinetobacter baumannii; 64 µg/mL (≈ 127 µM) in the data set with Escherichia coli [1]; 16 µg/mL (≈ 31.7 µM) in the data set on Staphylococcus aureus [2]; 32 µg/mL (≈ 63.4 µM) with Escherichia coli [3]; 32 µg/mL (≈ 63.4 µM) in the data set on Staphylococcus aureus [5]; 128 µg/mL (≈ 254 µM) in the data set on Pseudomonas aeruginosa [6]. Also, the MIC in the data set on Staphylococcus aureus [7] was found to be 64 µg/mL (≈ 127 µM); in the data set on Pseudomonas aeruginosa [8], 64 µg/mL (≈ 127 µM); in the data set on Staphylococcus aureus [9], 32 µg/mL (≈ 63.4 µM); with Enterococcus faecium, 32 µg/mL (≈ 63.4 µM); with Klebsiella pneumoniae it was 32 µg/mL (≈ 63.4 µM). In addition, the HC50 at 1 h in data set [4] is 266 µg/mL.

For `CCCCCCCCCCCCN1C(=O)c2cccc3c(N4CCN(C(=O)/C(=N\OC)c5csc(N)n5)CC4)ccc(c23)C1=O`, the MIC came out at 16 µg/mL (≈ 25.3 µM) with Acinetobacter baumannii; 128 µg/mL (≈ 202 µM) in the data set on Escherichia coli [1]; 128 µg/mL (≈ 202 µM) in the data set with Staphylococcus aureus [2]; 64 µg/mL (≈ 101 µM) in the data set on Escherichia coli [3]; 64 µg/mL (≈ 101 µM) with Staphylococcus aureus [5]; 64 µg/mL (≈ 101 µM) in the data set with Pseudomonas aeruginosa [6]. In addition, the MIC in the data set on Staphylococcus aureus [7] turned out to be 128 µg/mL (≈ 202 µM); in the data set on Pseudomonas aeruginosa [8] it was 64 µg/mL (≈ 101 µM); in the data set with Staphylococcus aureus [9], 16 µg/mL (≈ 25.3 µM); with Enterococcus faecium, 32 µg/mL (≈ 50.6 µM); with Klebsiella pneumoniae, 64 µg/mL (≈ 101 µM). Besides, the HC50 at 1 h in data set [4] was found to be 359 µg/mL.

As for `CO/N=C(\C(=O)N1CCN(c2ccc3c4c(cccc24)C(=O)N(O)C3=O)CC1)c1csc(N)n1`, the minimal inhibitory concentration (MIC) with Acinetobacter baumannii came out at 2 µg/mL (≈ 4.16 µM); with Escherichia coli [1], 64 µg/mL (≈ 133 µM); in the data set with Staphylococcus aureus [2], 32 µg/mL (≈ 66.6 µM); in the data set with Escherichia coli [3], 32 µg/mL (≈ 66.6 µM); with Staphylococcus aureus [5], 16 µg/mL (≈ 33.3 µM); with Pseudomonas aeruginosa [6], 64 µg/mL (≈ 133 µM). The minimum inhibitory concentration (MIC) in the data set on Staphylococcus aureus [7] came to 32 µg/mL (≈ 66.6 µM); in the data set on Pseudomonas aeruginosa [8], 64 µg/mL (≈ 133 µM); with Staphylococcus aureus [9], 64 µg/mL (≈ 133 µM); with Enterococcus faecium, 8 µg/mL (≈ 16.6 µM); with Klebsiella pneumoniae it was 16 µg/mL (≈ 33.3 µM). Also, the HC50 at 1 h in data set [4] was 277 µg/mL.
